# Measurements: patent US8609635B2, “Fused tricyclic silyl compounds and methods of use thereof for the treatment of viral diseases” (priority 2010, dated 2013)
# Assays:
# [1] = system: HCV chimeric replicon with NS5A of genotype 4a (DQ41878); test: Cell-based HCV replicon assay (TaqMan), chimeric replicon genotype 4a (DQ41878); details: Hepatitis C virus, 72 h, read-out: HCV replicon EC50 4a (DQ41878)
# How it was run: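 Replicon cells seeded at 5000 cells/well with compound (10 serial 2-fold dilutions from 250 μM to 1 μM top dose; 0.5% DMSO, 5% FBS) and lysed on day 3. Replicon RNA quantified by multiplex TaqMan RT-PCR (NS5B amplicon, GAPDH control); ΔCT versus concentration fitted to sigmoid dose-response. Chimeras carry patient-isolate NS5A.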
# [2] = Pharmacokinetic analysis in monkeys; format: in vivo, male cynomolgus monkeys; details: Monkey, dihydrochloride salt, 2 mpk/PO, 1 mpk/IV
# Description: (§1) Various pharmacokinetic parameters for compound 56 were measured in rats, dogs and monkeys as described below.
# Following an overnight fast, male cynomolgus monkeys were dosed with the dihydrochloride salt of compound 56 orally at 2 mg/kg as a suspension in 0.4% hydroxylpropyl methylcellulose (HPMC) or intravenously at 1 mg/kg as a solution in 20% hydroxypropyl-β-cyclodextrin (20% HPβCD). For oral dosing, the animals dosed by oro-gastric intubation. Monkeys were fed approximately 1 hour before dosing and 4 hours after dosing. Blood samples were collected from the saphenous and/or cephalic vein at 0.25, 0.5, 1, 2, 4, 6, 8, 12, 24, 48, and 72 (PO), and 0.167, 0.25, 0.5, 1, 2, 4, 6, 8, 12, 24, 48, and 72 hrs (IV) post-dosing and centrifuged to generate plasma. The plasma samples were stored at […] until analysis.
# (§2) Collected plasma samples were analyzed for the presence of compound 56 using LC-MS/MS as described below.
# (§3) The HPLC/API-MS/MS system for the example data consisted of a HPLC pumping system and a auto sampler with the sample tray refrigeration option connected directly to a triple quadrupole mass spectrometer with an API source. Typical HPLC methods for the example data was based on a fast gradient of two solvents: solvent A consisted of 0.1% formic acid in water, and solvent B consisted of 0.1% formic acid in acetonitrile. A fast linear gradient (start at 90% A for 0.2 min, ramp to 95% B from 0.2 to 0.5 min, hold at 95% B […], then ramp back to 90% A from 1.0 to 1.1 min, then hold at, […] from 1.1 to 1.2 min) was used. The flow rate for the HPLC system was set to 1 mL/min throughout the HPLC gradient; the HPLC column was a Halo C18 column (2.7 micron particle size, 50×2.1 mm). The example compounds were analyzed by positive ion atmospheric pressure chemical ionization tandem mass spectrometry (APCI-MS/MS). As a general procedure, selected reaction monitoring (SRM) methods were developed for each compound prior to analysis of the plasma samples. Normally, the individual SRM transitions were based on a fragmentation from the protonated molecule ([MH].) to a characteristic product ion.
# (§4) Using the methods described above, the following pharmacokinetic parameters were calculated in rats, dogs and monkeys and the results are summarized in the table below.
# [3] = system: HCV chimeric replicon with NS5A of genotype 2b (AB03090); test: Cell-based HCV replicon assay (TaqMan), chimeric replicon genotype 2b (AB03090); details: Hepatitis C virus, 72 h, read-out: HCV replicon EC50 2b (AB03090), chimeric replicon 2b (AB03090); replicon RNA by TaqMan, day 3
# Description: Measurement of inhibition by compounds of the present invention was performed using the HCV replicon system. Several different replicons encoding different HCV genotypes or mutations were used. In addition, potency measurements were made using different formats of the replicon assay, including different ways of measurements and different plating formats. See Jan M. Vrolijk et al., A replicons-based bioassay for the measurement of interferons in patients with chronic hepatitis C, 110 J. VIROLOGICAL METHODS 201 (2003); Steven S. Carroll et al., Inhibition of Hepatitis C Virus RNA Replication by 2′-Modified Nucleoside Analogs, 278(14) J. BIOLOGICAL […] 11979 (2003). However, the underlying principles are common to all of these determinations, and are outlined below.
# Compounds of the present invention were assayed for cell-based anti-HCV activity using the following protocol. Replicon cells were seeded at 5000 cells/well in 96-well collagen I-coated Nunc plates in the presence of the test compound. Various concentrations of test compound, typically in 10 serial 2-fold dilutions, were added to the assay mixture, with the starting concentration ranging from 250 μM to 1 μM. The final concentration of DMSO was 0.5%, fetal bovine serum was 5%, in the assay media. Cells were harvested on day 3 by the addition of 1× cell lysis buffer (Ambion cat #8721). The replicon RNA level was measured using real time PCR (TaqMan® assay). The amplicon was located in 5B. The PCR primers were: 5B.2F, […] (SEQ. ID NO. 1); 5B.2R, […] (SEQ. ID NO. 2); the probe sequence was FAM-labeled […] (SEQ. ID NO. 3). GAPDH RNA was used as endogenous control and was amplified in the same reaction as NS5B (multiplex PCR) using primers and VIC-labeled probe recommended by the manufacturer (PE Applied Biosystem). The real-time RT-PCR reactions were run on ABI PRISM 7900HT Sequence Detection System using the following program: 48° C. for 30 minutes, 95° C. for 10 minutes, 40 cycles of 95° C. for 15 sec, 60° C. for 1 minute. The ΔCT values (CT5B-CTGAPDH) were plotted against the concentration of test compound and fitted to the sigmoid dose-response model using XLfit4 (MDL). […] Alternatively, to quantitate the absolute amount of replicon RNA, a standard curve was established by including serially diluted T7 transcripts of replicon RNA in the Taqman assay. All TaqMan® reagents were from PE Applied Biosystems. Such an assay procedure was described in detail in e.g. Malcolm et al., Antimicrobial Agents and Chemotherapy 50: 1013-1020 (2006).
# Wherein gt1a_H77 was prepared as described in Yi et al., J Virol. 2004, 78(15):7904-15; gt1b_con1 was prepared as described in Lohmann et al., Science 1999, 285(5424):110-3; and gt2a_JFH was prepared as described in Kato et al., Gastroenterology. 2003, 125(6):1808-17. Chimeric replicons contain NS5A from patient isolates of genotypes 1a, 1b, 2b, 3a and 4a as indicated.
# [4] = Pharmacokinetic analysis in dogs; format: in vivo, male beagle dogs; details: Dog, dihydrochloride salt, 2 mpk/PO, 1 mpk/IV
# Description: as §1
# Following an overnight fast, male beagle dogs were dosed with the dihydrochloride salt of compound 56 orally at 2 mg/kg as a suspension in 0.4% hydroxylpropyl methylcellulose (HPMC) or intravenously at 1 mg/kg as a solution in 20% hydroxypropyl-β-cyclodextrin (20% HPβCD). For oral dosing, the animals were typically restrained by hand and dosed by oro-gastric intubation. Dogs were fed approximately 4 hours after dosing. Blood samples were collected from the jugular or cephalic vein at 0.25, 0.5, 1, 2, 4, 6, 8, 12, 24, 48, 72 and 96 hrs (PO) and 0.167, 0.25, 0.5, 1, 2, 4, 6, 8, 12, 24, 48, 72 and 96 hrs (IV) post-dosing and centrifuged to generate plasma. The plasma samples were stored at […] until analysis.
# as §2, §3, §4
# [5] = dose-normalized AUC between PO and IV
smiles,measurement,setting,value
COC(=O)N[C@H](C(=O)N1CC(F)(F)C[C@H]1c1ncc(-c2ccc(-c3ccc4c(ccc5nc([C@@H]6C[Si](C)(C)CN6C(=O)[C@@H](NC(=O)OC)C(C)C)[nH]c54)c3)cc2)[nH]1)C(C)C [Compound 56],EC50,[1],0.02 nM
same,Effective Half-Life,[2],17 h
same,Systemic Clearance,[2],0.072 L/h/kg
same,Volume of Distribution,[2],1.7 L/kg
same,Oral Bioavailability,[2]; [5],11.7%
same,EC50,[3],48 nM
same,Effective Half-Life,[4],18 h
same,Volume of Distribution,[4],1.3 L/kg
same,Oral Bioavailability,[4]; [5],8.7%
same,clearance,"[4]; male, beagle, plasma, 1 mg/kg, read-out: Systemic Clearance",0.048 L/h/kg
